Each block holds one compound with its values, some of them ahead of it.
Legend:
Assay in all cases: KINOMEscan competition binding
Details in all cases: compound 10.0 µM
CDK4 CCND3 (human) = CDK4 CCND3 (human) (UniProt P11802+P30281)
CDKL3 (human) = CDKL3 (human) (UniProt Q8IVW4)
CDKL5 (human) = CDKL5 (human) (UniProt O76039)
CPK1 (P.falciparum) = system: CPK1 (P.falciparum)
CRK2 (P.falciparum) = CRK2 (P.falciparum) (UniProt P61075)
CSNK1A1 (human) = CSNK1A1 (human) (UniProt P48729)
CSNK1A1L (human) = CSNK1A1L (human) (UniProt Q8N752)
DCLK2 (human) = DCLK2 (human) (UniProt Q8N568)
DYRK2 (human) = DYRK2 (human) (UniProt Q92630)
[1] = system: EGFR (human), P00533 [T790M/L858R]
EPHB6 (human) = EPHB6 (human) (UniProt O15197)
ERBB3 (human) = ERBB3 (human) (UniProt P21860)
GRK4 (human) = GRK4 (human) (UniProt P32298)
HIPK2 (human) = HIPK2 (human) (UniProt Q9H2X6)
HUNK (human) = HUNK (human) (UniProt P57058)
ICK (human) = ICK (human) (UniProt Q9UPZ9)
IRAK1 (human) = IRAK1 (human) (UniProt P51617)
IRAK4 (human) = IRAK4 (human) (UniProt Q9NWZ3)
[2] = system: KIT (human), P10721 [D816H]
LRRK2 (human) = LRRK2 (human) (UniProt Q5S007)
MAP2K7 (human) = MAP2K7 (human) (UniProt O14733)
MAP3K1 (human) = MAP3K1 (human) (UniProt Q13233)
MAP3K13 (human) = MAP3K13 (human) (UniProt O43283)
MAST1 (human) = MAST1 (human) (UniProt Q9Y2H9)
MATK (human) = MATK (human) (UniProt P42679)
[3] = system: MET (human), P08581 [M1250T]
NEK3 (human) = NEK3 (human) (UniProt P51956)
OXSR1 (human) = OXSR1 (human) (UniProt O95747)
PAK3 (human) = PAK3 (human) (UniProt O75914)
PIK3C2G (human) = PIK3C2G (human) (UniProt O75747)
[4] = system: PIK3CA (human), P42336 [E542K]
[5] = system: PIK3CA (human), P42336 [M1043I]
[6] = system: PIK3CA (human), P42336 [Q546K]
PIP4K2C (human) = PIP4K2C (human) (UniProt Q8TBX8)
PIP5K1C (human) = PIP5K1C (human) (UniProt O60331)
PLK2 (human) = PLK2 (human) (UniProt Q9NYY3)
PRKCI (human) = PRKCI (human) (UniProt P41743)
TAOK2 (human) = TAOK2 (human) (UniProt Q9UL54)
TBK1 (human) = TBK1 (human) (UniProt Q9UHD2)
TRPM6 (human) = TRPM6 (human) (UniProt Q9BX84)
VRK2 (human) = VRK2 (human) (UniProt Q86Y07)
ABL1 (human) = ABL1 (human) (UniProt P00519)

Sequence of PIK3CA (human), P42336 [Q546K] (P42336 whole entry Q546K, looked up): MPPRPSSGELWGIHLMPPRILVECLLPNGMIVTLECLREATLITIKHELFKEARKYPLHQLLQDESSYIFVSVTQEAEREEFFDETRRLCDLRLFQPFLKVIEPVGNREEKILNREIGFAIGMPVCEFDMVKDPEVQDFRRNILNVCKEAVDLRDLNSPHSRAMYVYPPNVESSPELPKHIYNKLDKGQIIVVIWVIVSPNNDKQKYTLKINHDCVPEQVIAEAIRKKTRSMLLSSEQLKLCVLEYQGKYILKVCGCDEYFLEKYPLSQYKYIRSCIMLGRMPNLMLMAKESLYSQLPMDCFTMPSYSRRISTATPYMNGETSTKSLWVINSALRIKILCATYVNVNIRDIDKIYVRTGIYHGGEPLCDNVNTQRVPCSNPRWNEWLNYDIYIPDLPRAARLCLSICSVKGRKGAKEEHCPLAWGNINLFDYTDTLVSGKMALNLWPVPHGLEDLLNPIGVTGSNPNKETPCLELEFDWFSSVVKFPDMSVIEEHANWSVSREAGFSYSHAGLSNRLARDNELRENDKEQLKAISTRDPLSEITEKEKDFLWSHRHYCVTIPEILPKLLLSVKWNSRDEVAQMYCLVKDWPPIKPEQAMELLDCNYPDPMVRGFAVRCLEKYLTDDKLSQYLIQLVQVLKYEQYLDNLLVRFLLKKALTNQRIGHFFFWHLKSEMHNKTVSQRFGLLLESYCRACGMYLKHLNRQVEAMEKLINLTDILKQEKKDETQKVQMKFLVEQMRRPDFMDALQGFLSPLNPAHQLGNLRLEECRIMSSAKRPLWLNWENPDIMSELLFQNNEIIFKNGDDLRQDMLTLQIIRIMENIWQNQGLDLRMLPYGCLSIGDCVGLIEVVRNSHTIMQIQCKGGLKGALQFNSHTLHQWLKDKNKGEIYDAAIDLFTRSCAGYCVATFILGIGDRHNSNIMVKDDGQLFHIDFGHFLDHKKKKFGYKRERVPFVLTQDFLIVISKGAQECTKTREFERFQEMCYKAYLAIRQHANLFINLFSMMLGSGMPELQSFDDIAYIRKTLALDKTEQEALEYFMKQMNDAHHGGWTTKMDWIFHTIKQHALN
Sequence of KIT (human), P10721 [D816H] (P10721 whole entry D816H, looked up): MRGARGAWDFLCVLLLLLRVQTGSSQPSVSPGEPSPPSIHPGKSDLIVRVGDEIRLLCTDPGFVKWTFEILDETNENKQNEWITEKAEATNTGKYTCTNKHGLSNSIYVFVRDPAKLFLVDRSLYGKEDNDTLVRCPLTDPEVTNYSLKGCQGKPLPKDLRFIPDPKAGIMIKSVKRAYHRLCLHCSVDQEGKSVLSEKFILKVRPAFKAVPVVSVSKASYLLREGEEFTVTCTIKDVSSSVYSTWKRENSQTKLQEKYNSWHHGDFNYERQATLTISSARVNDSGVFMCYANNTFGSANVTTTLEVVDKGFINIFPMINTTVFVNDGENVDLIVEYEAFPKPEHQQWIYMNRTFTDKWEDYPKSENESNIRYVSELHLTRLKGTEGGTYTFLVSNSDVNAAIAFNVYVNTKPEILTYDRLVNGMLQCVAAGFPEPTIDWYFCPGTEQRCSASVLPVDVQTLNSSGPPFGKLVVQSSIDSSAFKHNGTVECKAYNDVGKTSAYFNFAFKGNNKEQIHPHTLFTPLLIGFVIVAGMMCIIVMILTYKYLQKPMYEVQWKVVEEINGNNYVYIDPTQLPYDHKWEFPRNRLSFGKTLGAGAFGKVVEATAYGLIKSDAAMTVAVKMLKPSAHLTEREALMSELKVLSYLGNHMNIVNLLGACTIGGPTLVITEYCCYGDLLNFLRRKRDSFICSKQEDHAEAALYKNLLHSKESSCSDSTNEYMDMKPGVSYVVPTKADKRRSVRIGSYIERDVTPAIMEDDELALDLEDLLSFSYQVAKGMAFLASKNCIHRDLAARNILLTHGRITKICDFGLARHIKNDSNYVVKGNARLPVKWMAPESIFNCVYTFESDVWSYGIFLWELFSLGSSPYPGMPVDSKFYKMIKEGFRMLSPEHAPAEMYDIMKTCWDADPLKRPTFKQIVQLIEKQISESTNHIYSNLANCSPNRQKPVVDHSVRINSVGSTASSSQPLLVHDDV
Sequence of MAP2K7 (human) (O14733 whole entry, looked up): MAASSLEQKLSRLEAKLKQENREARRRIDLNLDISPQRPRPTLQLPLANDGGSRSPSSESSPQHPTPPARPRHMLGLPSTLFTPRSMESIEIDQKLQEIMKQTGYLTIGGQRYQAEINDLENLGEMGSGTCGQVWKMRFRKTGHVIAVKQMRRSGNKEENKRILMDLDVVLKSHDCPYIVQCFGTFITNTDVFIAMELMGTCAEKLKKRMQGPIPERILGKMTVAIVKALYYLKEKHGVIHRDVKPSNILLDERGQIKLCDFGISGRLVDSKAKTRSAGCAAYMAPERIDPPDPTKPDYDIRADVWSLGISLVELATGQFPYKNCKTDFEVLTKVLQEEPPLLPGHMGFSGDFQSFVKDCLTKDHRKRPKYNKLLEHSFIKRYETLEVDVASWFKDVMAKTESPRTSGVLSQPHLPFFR
Sequence of EPHB6 (human) (O15197 whole entry, looked up): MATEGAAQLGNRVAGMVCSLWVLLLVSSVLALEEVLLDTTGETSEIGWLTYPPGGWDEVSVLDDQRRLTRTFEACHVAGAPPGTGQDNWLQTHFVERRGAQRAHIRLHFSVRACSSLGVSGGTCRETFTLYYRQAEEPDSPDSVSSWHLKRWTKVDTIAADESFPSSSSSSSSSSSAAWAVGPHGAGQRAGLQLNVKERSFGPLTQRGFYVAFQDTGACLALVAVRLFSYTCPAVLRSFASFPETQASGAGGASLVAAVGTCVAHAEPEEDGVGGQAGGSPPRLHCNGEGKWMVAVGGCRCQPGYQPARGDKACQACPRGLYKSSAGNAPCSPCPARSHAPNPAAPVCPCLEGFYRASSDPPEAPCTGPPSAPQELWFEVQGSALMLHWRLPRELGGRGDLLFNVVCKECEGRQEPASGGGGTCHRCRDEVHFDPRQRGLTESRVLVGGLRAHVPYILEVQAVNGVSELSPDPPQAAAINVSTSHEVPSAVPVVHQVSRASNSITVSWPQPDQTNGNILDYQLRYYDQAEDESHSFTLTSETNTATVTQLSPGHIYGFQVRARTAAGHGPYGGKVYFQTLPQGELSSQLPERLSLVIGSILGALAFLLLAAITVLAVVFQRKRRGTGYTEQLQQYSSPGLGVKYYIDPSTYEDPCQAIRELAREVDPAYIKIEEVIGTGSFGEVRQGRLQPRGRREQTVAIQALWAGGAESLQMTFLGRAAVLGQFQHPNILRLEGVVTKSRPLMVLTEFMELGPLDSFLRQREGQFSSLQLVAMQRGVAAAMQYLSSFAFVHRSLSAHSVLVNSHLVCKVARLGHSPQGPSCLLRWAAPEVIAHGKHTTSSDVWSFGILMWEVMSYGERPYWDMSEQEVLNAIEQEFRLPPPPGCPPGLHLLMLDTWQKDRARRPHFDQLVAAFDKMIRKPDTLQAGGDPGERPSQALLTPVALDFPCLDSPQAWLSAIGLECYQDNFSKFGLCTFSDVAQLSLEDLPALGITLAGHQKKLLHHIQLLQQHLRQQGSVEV
Sequence of TAOK2 (human) (Q9UL54 whole entry, looked up): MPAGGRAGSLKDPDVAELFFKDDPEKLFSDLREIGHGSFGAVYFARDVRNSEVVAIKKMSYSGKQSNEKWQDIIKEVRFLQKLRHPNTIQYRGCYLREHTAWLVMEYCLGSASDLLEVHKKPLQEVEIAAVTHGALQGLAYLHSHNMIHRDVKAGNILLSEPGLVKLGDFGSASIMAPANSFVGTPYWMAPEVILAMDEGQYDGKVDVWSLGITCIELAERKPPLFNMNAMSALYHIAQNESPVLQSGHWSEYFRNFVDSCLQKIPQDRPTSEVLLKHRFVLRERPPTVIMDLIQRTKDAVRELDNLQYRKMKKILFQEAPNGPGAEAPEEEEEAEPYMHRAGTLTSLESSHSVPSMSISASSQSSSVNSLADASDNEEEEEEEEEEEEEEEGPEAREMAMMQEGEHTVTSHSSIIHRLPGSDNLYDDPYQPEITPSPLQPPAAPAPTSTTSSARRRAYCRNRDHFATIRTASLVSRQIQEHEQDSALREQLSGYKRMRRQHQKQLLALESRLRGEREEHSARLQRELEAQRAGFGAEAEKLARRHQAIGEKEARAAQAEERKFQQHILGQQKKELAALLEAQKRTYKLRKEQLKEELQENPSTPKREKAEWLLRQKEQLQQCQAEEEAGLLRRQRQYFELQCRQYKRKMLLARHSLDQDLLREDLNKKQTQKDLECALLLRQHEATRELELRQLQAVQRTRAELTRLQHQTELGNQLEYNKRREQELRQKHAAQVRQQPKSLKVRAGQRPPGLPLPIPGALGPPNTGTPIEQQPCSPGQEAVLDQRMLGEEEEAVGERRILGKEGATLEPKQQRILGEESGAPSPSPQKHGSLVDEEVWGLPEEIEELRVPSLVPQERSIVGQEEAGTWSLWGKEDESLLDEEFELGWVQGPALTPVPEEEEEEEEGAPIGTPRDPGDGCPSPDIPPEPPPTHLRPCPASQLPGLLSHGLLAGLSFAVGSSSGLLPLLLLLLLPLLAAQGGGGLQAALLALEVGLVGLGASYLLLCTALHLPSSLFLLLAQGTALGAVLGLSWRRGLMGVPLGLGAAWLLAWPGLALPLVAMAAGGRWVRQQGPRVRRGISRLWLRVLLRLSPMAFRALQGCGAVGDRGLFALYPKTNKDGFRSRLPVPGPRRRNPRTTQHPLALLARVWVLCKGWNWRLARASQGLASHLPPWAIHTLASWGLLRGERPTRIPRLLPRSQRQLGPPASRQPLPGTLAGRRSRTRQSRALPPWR
Sequence of PIK3CA (human), P42336 [E542K] (P42336 whole entry E542K, looked up): as the sequence (P42336 whole entry Q546K, looked up) above, with E542K, K546Q counted along it
Sequence of PIK3CA (human), P42336 [M1043I] (P42336 whole entry M1043I, looked up): as the sequence (P42336 whole entry Q546K, looked up) above, with K546Q, M1043I counted along it
Sequence of CRK2 (P.falciparum) (P61075 whole entry, looked up): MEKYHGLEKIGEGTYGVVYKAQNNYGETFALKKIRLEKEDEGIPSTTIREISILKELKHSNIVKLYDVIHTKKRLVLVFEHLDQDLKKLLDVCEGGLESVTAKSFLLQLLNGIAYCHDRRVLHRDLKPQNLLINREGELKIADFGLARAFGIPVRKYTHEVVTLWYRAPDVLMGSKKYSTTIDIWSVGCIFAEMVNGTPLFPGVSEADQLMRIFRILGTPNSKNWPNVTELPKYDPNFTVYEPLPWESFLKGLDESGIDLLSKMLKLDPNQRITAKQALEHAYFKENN

Structure (SMILES): CCN1CCN(Cc2ccc(NC(=O)c3ccc(C)c(/C=C/c4cnc(Nc5cc(N6CCNCC6)nc(C)n5)cn4)c3)cc2C(F)(F)F)CC1
- kinase still bound, per cent of control (CDK4 CCND3 (human)): 64%
- kinase still bound, per cent of control (CDKL3 (human)): 0.55%
- kinase still bound, per cent of control (CDKL5 (human)): 13%
- kinase still bound, per cent of control (CPK1 (P.falciparum)): 0.2%
- kinase still bound, per cent of control (CRK2 (P.falciparum)): 55%
- kinase still bound, per cent of control (CSNK1A1 (human)): 14%
- kinase still bound, per cent of control (CSNK1A1L (human)): 99%
- kinase still bound, per cent of control (DCLK2 (human)): 100%
- kinase still bound, per cent of control (DYRK2 (human)): 74%
- kinase still bound, per cent of control [1]: 65%
- kinase still bound, per cent of control (EPHB6 (human)): 1.6%
- kinase still bound, per cent of control (ERBB3 (human)): 100%
- kinase still bound, per cent of control (GRK4 (human)): 80%
- kinase still bound, per cent of control (HIPK2 (human)): 49%
- kinase still bound, per cent of control (HUNK (human)): 93%
- kinase still bound, per cent of control (ICK (human)): 71%
- kinase still bound, per cent of control (IRAK1 (human)): 50%
- kinase still bound, per cent of control (IRAK4 (human)): 77%
- kinase still bound, per cent of control [2]: 20%
- kinase still bound, per cent of control (LRRK2 (human)): 63%
- kinase still bound, per cent of control (MAP2K7 (human)): 30%
- kinase still bound, per cent of control (MAP3K1 (human)): 75%
- kinase still bound, per cent of control (MAP3K13 (human)): 6.6%
- kinase still bound, per cent of control (MAST1 (human)): 87%
- kinase still bound, per cent of control (MATK (human)): 100%
- kinase still bound, per cent of control [3]: 89%
- kinase still bound, per cent of control (NEK3 (human)): 59%
- kinase still bound, per cent of control (OXSR1 (human)): 76%
- kinase still bound, per cent of control (PAK3 (human)): 14%
- kinase still bound, per cent of control (PIK3C2G (human)): 87%
- kinase still bound, per cent of control [4]: 94%
- kinase still bound, per cent of control [5]: 73%
- kinase still bound, per cent of control [6]: 100%
- kinase still bound, per cent of control (PIP4K2C (human)): 61%
- kinase still bound, per cent of control (PIP5K1C (human)): 65%
- kinase still bound, per cent of control (PLK2 (human)): 69%
- kinase still bound, per cent of control (PRKCI (human)): 74%
- kinase still bound, per cent of control (TAOK2 (human)): 5.7%
- kinase still bound, per cent of control (TBK1 (human)): 96%
- kinase still bound, per cent of control (TRPM6 (human)): 67%
- kinase still bound, per cent of control (VRK2 (human)): 62%

- kinase still bound, per cent of control (ABL1 (human)): 7.3%
Structure (SMILES): COc1cc(N2CCC(N3CCN(C)CC3)CC2)ccc1Nc1ncc(Cl)c(Nc2ccccc2S(=O)(=O)C(C)C)n1

Structure (SMILES): CCOc1cc(N2CCC(N3CCCCC3)CC2)ccc1Nc1nc(Nc2ccccc2S(=O)(=O)C(C)C)c2cn[nH]c2n1
- kinase still bound, per cent of control (CDK4 CCND3 (human)): 100%
- kinase still bound, per cent of control (CDKL3 (human)): 100%
- kinase still bound, per cent of control (CDKL5 (human)): 100%
- kinase still bound, per cent of control (CPK1 (P.falciparum)): 44%
- kinase still bound, per cent of control (CRK2 (P.falciparum)): 100%
- kinase still bound, per cent of control (CSNK1A1 (human)): 55%
- kinase still bound, per cent of control (CSNK1A1L (human)): 78%
- kinase still bound, per cent of control (DCLK2 (human)): 19%
- kinase still bound, per cent of control (DYRK2 (human)): 90%
- kinase still bound, per cent of control [1]: 25%
- kinase still bound, per cent of control (EPHB6 (human)): 71%
- kinase still bound, per cent of control (ERBB3 (human)): 55%
- kinase still bound, per cent of control (GRK4 (human)): 92%
- kinase still bound, per cent of control (HIPK2 (human)): 89%
- kinase still bound, per cent of control (HUNK (human)): 100%
- kinase still bound, per cent of control (ICK (human)): 89%
- kinase still bound, per cent of control (IRAK1 (human)): 93%
- kinase still bound, per cent of control (IRAK4 (human)): 87%
- kinase still bound, per cent of control [2]: 73%
- kinase still bound, per cent of control (LRRK2 (human)): 0.65%
- kinase still bound, per cent of control (MAP2K7 (human)): 78%
- kinase still bound, per cent of control (MAP3K1 (human)): 82%
- kinase still bound, per cent of control (MAP3K13 (human)): 100%
- kinase still bound, per cent of control (MAST1 (human)): 46%
- kinase still bound, per cent of control (MATK (human)): 100%
- kinase still bound, per cent of control [3]: 100%
- kinase still bound, per cent of control (NEK3 (human)): 76%
- kinase still bound, per cent of control (OXSR1 (human)): 0.05%
- kinase still bound, per cent of control (PAK3 (human)): 59%
- kinase still bound, per cent of control (PIK3C2G (human)): 100%
- kinase still bound, per cent of control [4]: 100%
- kinase still bound, per cent of control [5]: 100%
- kinase still bound, per cent of control [6]: 100%
- kinase still bound, per cent of control (PIP4K2C (human)): 100%
- kinase still bound, per cent of control (PIP5K1C (human)): 82%
- kinase still bound, per cent of control (PLK2 (human)): 100%
- kinase still bound, per cent of control (PRKCI (human)): 100%
- kinase still bound, per cent of control (TAOK2 (human)): 66%
- kinase still bound, per cent of control (TBK1 (human)): 100%
- kinase still bound, per cent of control (TRPM6 (human)): 100%
- kinase still bound, per cent of control (VRK2 (human)): 68%

- kinase still bound, per cent of control (ABL1 (human)): 0.1%
Structure (SMILES): CCN1CCN(Cc2ccc(NC(=O)c3ccc(C)c(Oc4ccnc5[nH]ccc45)c3)cc2C(F)(F)F)CC1
